Common to all, as to test: ≥ marks a high value that may be exact or a test limit, other limits are often not marked, values filed in µg/mL are converted to µM
For assay [1], the system named is Staphylococcus warneri.
Assay [2] concerns Candida albicans.
The subject of assay [3] is Staphylococcus haemolyticus.
Assay [4] concerns Saccharomyces cerevisiae.
Assay [5] deals with Morganella morganii.
Assay [6] deals with Staphylococcus aureus.
Assay [7] has as its system Escherichia coli DH5alpha.
In assay [8] the test system is Bacillus subtilis.
The subject of assay [9] is Escherichia coli K-12 D31.
In assay [10] the test system is Enterococcus faecium.
Assay [11] has as its system Staphylococcus saprophyticus.
Assay [12] has as its system Salmonella enterica.
Assay [13] concerns Candida albicans ATCC 90028.
Assay [14] concerns Escherichia coli ATCC 25726.
For assay [15], the system named is Batrachochytrium dendrobatidis JEL-197.
For assay [16], the system named is Staphylococcus aureus ATCC 25923.
Assay [17] concerns Candida albicans ATCC 2002.
For assay [18], the system named is Bacillus licheniformis X39.
The test system of assay [19] is Staphylococcus carnosus KHS.
In assay [20] the test system is Rhodococcus rhodochrous X15.
For assay [21], the system named is Psychrobacter faecalis X29.
The test system of assay [22] is Enterococcus faecalis.
In assay [23] the test system is Aspergillus fumigatus.
Assay [24] relates to Aeromonas caviae.
Assay [25] relates to Nocardia brasiliensis.
Assay [26] deals with Trichophyton simii.
The subject of assay [27] is Microsporum canis.
For assay [28], the system named is Trichophyton rubrum.
For assay [29], the system named is Escherichia coli.
Assay [30] relates to Aspergillus niger.
The subject of assay [31] is Cryptococcus neoformans.
The subject of assay [32] is Helicobacter pylori ATCC 43504.
Assay [33] has as its system Helicobacter pylori ATCC 700392.
Assay [34] has as its system Aeromonas hydrophila BCRC 13018.
Assay [35] relates to Streptococcus agalactiae BCRC 10787.
For assay [36], the system named is Vibrio alginolyticus.
Assay [37] deals with Helicobacter pylori.
Assay [38] deals with Helicobacter pylori ATCC 43629.
In assay [39] the test system is Enterococcus faecalis BCRC 10066.
For assay [40], the system named is Streptococcus agalactiae 819.
Assay [41] has as its system Vibrio vulnificus 204.
Assay [42] deals with Pseudomonas aeruginosa ATCC 19660.

Values after ≈ are worked out from the molar mass of the structure shown.

As usually defined, the MIC is the lowest concentration that inhibits growth of the organism. The low end stands for inhibition by little substance, the high end for a need for much substance. With `CC[C@H](C)[C@H](NC(=O)[C@H](CC(C)C)NC(=O)[C@H](CCCCN)NC(=O)CNC(=O)[C@H](C)NC(=O)[C@H](Cc1cnc[nH]1)NC(=O)[C@@H](NC(=O)[C@H](CC(C)C)NC(=O)CNC(=O)[C@H](Cc1cnc[nH]1)NC(=O)[C@H](Cc1ccccc1)NC(=O)[C@@H](NC(=O)[C@H](CC(C)C)NC(=O)CNC(=O)[C@H](CC(C)C)NC(=O)[C@@H](N)Cc1ccccc1)[C@@H](C)CC)C(C)C)C(=O)N[C@@H](Cc1cnc[nH]1)C(=O)NCC(=O)N[C@@H](CC(C)C)C(=O)N[C@H](C(=O)N[C@@H](Cc1cnc[nH]1)C(=O)N[C@@H](CCCN=C(N)N)C(=O)N[C@@H](CC(N)=O)C(=O)N[C@@H](CCCN=C(N)N)C(=O)NCC(=O)O)[C@@H](C)CC` [FLGLIFHGLVHAGKLIHGLIHRNRG], the MIC was 15 µM (≈ 41.6 µg/mL) in [1]; 96 µM (≈ 267 µg/mL) in assay [2]; 7.5 µM (≈ 20.8 µg/mL) in assay [3]; at least 384 µM in [4]; 12 µM (≈ 33.3 µg/mL) in assay [5]; 1.5 µM (≈ 4.16 µg/mL) in [6]. In addition, the minimal inhibitory concentration (MIC) in assay [7] is 7.5 µM (≈ 20.8 µg/mL); in assay [8] it was at least 48 µM; in [9], 3 µM (≈ 8.33 µg/mL); in assay [10], 15 µM (≈ 41.6 µg/mL); in assay [11], 7.5 µM (≈ 20.8 µg/mL); in assay [12] it was 6 µM (≈ 16.7 µg/mL).
Regarding `CC[C@H](C)[C@H](NC(=O)[C@H](CO)NC(=O)[C@@H]1CCCN1C(=O)[C@@H](NC(=O)[C@H](CC(C)C)NC(=O)CNC(=O)[C@@H](NC(=O)[C@H](CC(C)C)NC(=O)[C@@H](NC(=O)[C@@H]1CCCN1C(=O)[C@H](CC(C)C)NC(=O)[C@@H](N)Cc1ccccc1)C(C)C)[C@@H](C)O)[C@@H](C)O)C(=O)N[C@H](C(=O)N1CCC[C@H]1C(=O)N[C@@H](CCCCN)C(=O)N[C@@H](CC(C)C)C(=O)N[C@H](C(=O)N[C@H]1CSSC[C@@H](C(=O)O)NC(=O)[C@H](CCCCN)NC(=O)[C@H](CCCCN)NC(=O)[C@H]([C@@H](C)O)NC(=O)[C@H](CC(C)C)NC(=O)[C@H](CC(C)C)NC1=O)C(C)C)C(C)C` [FLPVLTGLTPSIVPKLVCLLTKKC], the minimum inhibitory concentration (MIC) was at least 100 µM in assay [13], at least 100 µM in assay [14], at least 50 µM in assay [15] and 50 µM (≈ 129 µg/mL) in assay [16].
Take `CC[C@H](C)[C@H](NC(=O)[C@H](CCCCN)NC(=O)[C@H](CCCCN)NC(=O)[C@H](C)NC(=O)[C@H](CC(C)C)NC(=O)[C@H](CC(N)=O)NC(=O)[C@@H](NC(=O)[C@@H](NC(=O)[C@@H](NC(=O)[C@H](CC(N)=O)NC(=O)[C@H](CC(C)C)NC(=O)[C@@H](NC(=O)[C@@H](N)CC(N)=O)[C@@H](C)CC)[C@@H](C)O)[C@@H](C)CC)[C@@H](C)CC)C(=O)N[C@@H](CC(C)C)C(N)=O` [NILNTIINLAKKIL]: the MIC was 9.5 µM (≈ 15 µg/mL) in assay [17]; 19 µM (≈ 30 µg/mL) in [18]; 19 µM (≈ 30 µg/mL) in assay [19]; 2.4 µM (≈ 3.79 µg/mL) in assay [20]; at least 37.5 µM in [21]; 4.8 µM (≈ 7.58 µg/mL) in [16].
`CC[C@H](C)[C@H](NC(=O)[C@H](Cc1ccc(O)cc1)NC(=O)[C@H](Cc1cnc[nH]1)NC(=O)[C@H](CCCN=C(N)N)NC(=O)[C@H](CC(C)C)NC(=O)[C@H](C)NC(=O)[C@@H](NC(=O)[C@H](CC(C)C)NC(=O)[C@H](Cc1ccc(O)cc1)NC(=O)[C@H](CCCCN)NC(=O)[C@H](CC(N)=O)NC(=O)[C@H](CCSC)NC(=O)[C@H](CCC(=O)O)NC(=O)[C@H](CCC(=O)O)NC(=O)[C@@H]1CCCN1)[C@@H](C)O)C(=O)N[C@@H](CC(N)=O)C(=O)N[C@@H](CC(C)C)C(=O)N[C@H](C(=O)N[C@H](C(=O)N[C@@H](CCCN=C(N)N)C(=O)N[C@@H](CCC(N)=O)C(=O)N[C@@H](CCCN=C(N)N)C(=O)N[C@@H](Cc1ccc(O)cc1)C(N)=O)[C@@H](C)O)C(C)C` [PEEMNKYLTALRHYINLVTRQRY]: the MIC in assay [2] is 5.16 µM (≈ 15 µg/mL); in assay [22] it was 3.44 µM (≈ 10 µg/mL); in assay [23], 27.5 µM (≈ 80 µg/mL); in assay [24], 13.7 µM (≈ 40 µg/mL); in [25], 6.87 µM (≈ 20 µg/mL); in assay [26] it was 3.44 µM (≈ 10 µg/mL). For the same compound, the MIC in assay [27] was 3.44 µM (≈ 10 µg/mL); in assay [28], 5.16 µM (≈ 15 µg/mL); in assay [29] it was 3.44 µM (≈ 10 µg/mL); in assay [30], at least 34.4 µM; in assay [31], 6.87 µM (≈ 20 µg/mL).
For `CC[C@H](C)[C@H](NC(=O)[C@H](CC(C)C)NC(=O)[C@H](CCC(=O)O)NC(=O)[C@H](CCC(N)=O)NC(=O)[C@H](CC(C)C)NC(=O)[C@@H](NC(=O)[C@H](CCCCN)NC(=O)[C@H](CCC(N)=O)NC(=O)[C@@H](NC(=O)[C@@H](NC(=O)[C@H](CCC(=O)O)NC(=O)CNC(=O)[C@H](CO)NC(=O)[C@@H](NC(=O)[C@H](CCC(N)=O)NC(=O)[C@H](CCCCN)NC(=O)CNC(=O)[C@H](CCC(N)=O)NC(=O)[C@H](CC(C)C)NC(=O)[C@@H](N)CCC(N)=O)C(C)C)C(C)C)C(C)C)C(C)C)C(=O)N[C@@H](CCC(N)=O)C(=O)N[C@@H](CO)C(=O)N[C@H](C(=O)N[C@@H](C)C(=O)N[C@@H](CCCCN)C(=O)N1CCC[C@H]1C(N)=O)C(C)C` [QLQGKQVSGEVVQKVLQELIQSVAKP], the MIC in assay [32] was found to be 4.23 µM (≈ 12 µg/mL); in assay [33], 4.23 µM (≈ 12 µg/mL); in [34], 6.22 µM (≈ 17.6 µg/mL); in assay [35] it was 6.22 µM (≈ 17.6 µg/mL); in assay [36] it was 6.22 µM (≈ 17.6 µg/mL); in [37], 4.23 µM (≈ 12 µg/mL). The MIC was 4.23 µM (≈ 12 µg/mL) in assay [38]; 6.22 µM (≈ 17.6 µg/mL) in assay [39]; 6.22 µM (≈ 17.6 µg/mL) in assay [40]; 6.22 µM (≈ 17.6 µg/mL) in assay [41]; 6.22 µM (≈ 17.6 µg/mL) in assay [42].

The record behind these values is DBAASP.
